In brackets after ≈: the same amount, converted by molar mass.
Test system: Staphylococcus aureus
Assay: antibacterial activity test (minimum concentration inhibitory to growth)
Type: cell-based
Conditions: for MIC: Staphylococcus aureus; for antibacterial activity against Gram-positive bacteria, particularly against Staphylococcus aureus: general statement in words

Structure (SMILES) | MIC | antibacterial activity against Gram-positive bacteria, particularly against Staphylococcus aureus
COC(=O)C[C@@H](N)CC(=O)O [Example 1 (b), β-(S)-aminoglutaric acid mono-methyl ester] | 10 to 100 mg/L (≈ 62.1 to 621 µM) | exhibit antibacterial activity
CCOC(=O)C[C@@H](N)CC(=O)O [Example 2, β-(S)-Aminoglutaric acid mono-ethyl ester] | 20 to 100 mg/L (≈ 114 to 571 µM) | exhibit antibacterial activity
COC(=O)C[C@H](N)CC(=O)O [Example 4, β-(R)-aminoglutaric acid mono- methyl ester] | 20 mg/L (≈ 124 µM) | exhibit an antibacterial activity
CCOC(=O)C[C@H](N)CC(=O)O [Example 7, β-(R)-Aminoglutaric acid mono-ethyl ester] | 30 to 100 mg/L (≈ 171 to 571 µM) | –

Source: patent EP0050799B1, “New processes for the production of di-alkyl esters and optically active mono-alkyl esters of 3-aminoglutaric acid” (ZAIDAN HOJIN BISEIBUTSU KAGAKU KENKYU KAI, priority 1980, dated 1982)
